Assay results from US20060135612A1, “Method of ameliorating or abrogating the effects of a neurodegenerative disorder, such as amyotrophic lateral sclerosis (ALS), by using a HDAC inhibiting agent” (U.S. Department of Veterans Affairs, priority 2004, published 2006).
Where two headings read alike, the source gives them in different places.

Tests used:
bcl-2 promoter = bcl-2 promoter activity assay in transfected N2a cells; type: cell-based
Description: Promoter Activity Assay: […] Vincent Bours (University of Liege, Belgium) (Reference 41). The bcl-2 Luc-reporter plasmids containing the fragment from -3934 to -8 from the bcl-2 promoter was also generous gift from Dr. L. Boxer (Stanford University, California). […] All promoter assays were performed in duplicates. Enzyme activities were normalized to the protein concentration of the extracts.

G93A mice [1] = assay: Motor performance on rotarod; type: in vivo; details: most efficacious doses, after 13 wks through endstage disease
Body weight = type: in vivo; details: G93A mice, beginning after 100 days
G93A transgenic ALS mice = details: for Survival (Days ± SD) / Percentile change (survival extension): G93A mice; for Percentile change (survival extension): vs 0 mg/kg/d
Description: We have standardized criteria to ensure homogeneity of the cohorts within the testing groups. Mice were randomized from 24 litters all within 4 days from the same ‘f’ generation. Body weights were taken at 20 days and mice were equally distributed according to weight within each experimental cohort. Mice under 8 g at 20 days were excluded from the experiments.
Intraperitoneal Dosing: Based upon previous studies (Reference 29), a dose response study was performed, treating groups (n=20) of wild type and G93A mice with 200, 600, 1,200, 2,000 and 5,000 mg/kg by daily intraperitoneal injection (100 μl) of sodium butyrate (Acros Organics/Fisher Scientific, Fairlawn, N.J.) dissolved in PBS and made fresh daily. Additional groups of mice were treated in the same manner with 100, 200, 400, 600, and 800 mg/kg of phenylbutyrate (Triple Crown America, Inc. Perkasie, Pa.). Control groups of G93A mice were treated with PBS injection (vehicle). Approximately 260 mice were used for behavioral and survival analyses.
Motor performance and ability to feed was closely monitored and used as the basis for determining when to euthanize the mice. The criterion for euthanization was the point in time the ALS mice were unable to right themselves after being placed on their back for 30 seconds. Some deaths occurred overnight and were recorded the following morning.

G93A mice [2] = details: at 120 days, PBS-treated 4,680.6±847.4, WT 11,580.9±221.2
G93A mice [3] = details: 120 days; for reactive astrogliosis (GFAP immunostaining): G93A mice spinal cord sections; for gross spinal cord atrophy: G93A mice
ALS mice = details: References 10 and 11; cited from earlier work
humans with ALS = details: cited from earlier work
[4] = tested on: N2a mutant SOD (G41D) cells; details: 1 mM, 12 hr pretreatment, X/XO 6 hr, MTT, vs untreated cells
Description: (§1) N2a Cell Culture: N2a monolayer cell cultures were grown in 50% DMEM and 50% OPTI-MEM with 5% fetal bovine serum (FBS), 1% antibiotic antimycotic, and 400 microgram/ml of the neomycin analog G418. Differentiation was induced within 3 days in serum-free medium. The SOD1 mutation (G41D) was introduced into a plasmid clone of human genomic SOD1 (pHGSOD-SVneo). Stably transfected lines of N2a cells were selected with the drug G418, after transfection with SOD1 pHGSOD-SVneo plasmids. Differentiated cells were incubated without FBS for 6 days before treatments. […] Cell viability was measured by MTT assay.

WT and WT-SOD1 N2a cells = details: MTT
Description: as §1

G93A mice [5] = details: at 17 weeks, vs untreated G93A mice
Description: Clinical Assessment: Both motor performance and body weight were measured throughout the study. Training sessions were given on days 21 and 22 to acclimate the mice to the rotarod apparatus (Columbus Instruments, Columbus, Ohio). Motor performance (constant rotation at 16 rpm) was assessed weekly from 23-100 days of age and twice weekly from 101 days of age. Three 60 sec trials were given during each session and averaged. Body weights were recorded twice weekly at the same time of day. Gait analysis was performed measuring stride length (Reference 49).

NF-κB p50 [6] = details: G93A mice, vs WT and vehicle-treated
Description: (§2) Western Blotting: Tissue lysates and subcellular fractions were prepared using an ice-cold cell extraction buffer containing 50 mM Tris-HCl, pH 7.4, 150 mM NaCl, 2 mM EDTA, 1% Triton X-100, 1 mM phenylmethylsulfonyl fluoride (PMSF), 10 mg/ml leupeptin, 1 μM pepstatin, 1 mM N-ethylmleimide (NEM), 2 mM Na3VO4, 20 mM sodium pyrophosphate, and 50 mM NaF). Lysates were centrifuged at 15,000 rpm at 4° C. for 30 min. Then the protein concentration was quantified and samples were boiled for 10 min with Laemmli buffer (15 is 100 mM Tris-HCL, pH 6.8, 4% SDS, 200 mM dithiothreitol, 20% glycerol, 2% SDS, 0.2% bromophenol blue, 10 μg/ml aprotinin, 10 μg/ml leupeptin) at 100° C. In general, 30 μg of proteins were electrophoresed on 10% SDS-polyacrylamide gel and transferred to nitrocellulose membrane. Membranes were blocked in 5% skim milk in TBST (Tris, pH 7.4; 150 mM NaCl; 0.05% Tween 20) for 30 min at room temperature. Blots were probed with primary antibodies overnight at 4 ° C. […] HRP-conjugated secondary IgG anti-Rabbit IgG and anti-mouse IgG (Bio-Rad Laboratories, Inc., Hercules, Calif.) were used at 1:5000 and 1:3000, respectively. HL-60 Cell lysates were used as positive controls (Upstate Biotechnology, Lake Placid, N.Y.).

activated caspase 3 = details: G93A mice, 120 days, vs untreated
Description: as §2

activated caspase 9 = details: G93A mice, 120 days, vs untreated
Description: as §2

bcl-2 [7] = details: G93A mice, vs vehicle-treated
Description: as §2

cytochrome c = details: G93A spinal cord, 120 days, vs PBS-treated
Description: as §2

plκB [8] = details: G93A mice
Description: as §2

[9] = tested on: histone 3 and histone 4 acetylation; details: treated WT and G93A mice
acetylated NF-κB p50 = details: 1 mM
Description: (§3) Freshly isolated spinal cords from wild type and G93A mice were minced and incubated with neurobasal medium for 12 hr. […] After incubation, the tissues were harvested and equally divided for Western blot analysis and RT-PCR.
Detection of Acetylated NF-κB p50: For detection of the levels of acetylated NF-κB p50, 200 μg of nuclear extracts were diluted to a total volume of 500 microliter in lysis buffer (100 mM Tris buffer, pH7.4, containing 1% Triton X-100, 150 mM NaCl, 1 mM sodium orthovanadate, 5 mM sodium fluoride, 3 mM PMSF, 3 mM DTT, 0.5 mg/m leupeptin, and 10 mg/ml aprotinin) and incubated with 7 μl of goat anti-p50 antibody (Santa Cruz, Santa Cruz, Calif.) by shaking overnight at 4° C. Thirty-two μl of protein A-sepharose (50% v/v slurry) was added to lysates and left for 1 hr at 4° C. Beads were collected by centrifugation and washed twice with lysis buffer, once in PBS and finally resuspended with 40 μl of 2×SDS loading buffer. Samples were boiled and a 20 μl aliquot was separated in a 10% SDS-PAGE. After transferring the proteins to a nitrocellulose membrane acetylated p50 proteins were detected in Western blot analysis using an acetyl lysine-specific antibody (AbCam, Cambridge, Mass. at 1:1000).

bcl-2 [10] = details: spinal cord tissue cultures, 1 mM, time-dependent
Description: as §3
as §2, with “HL-60 Cell lysates were used as positive controls (Upstate Biotechnology, Lake Placid, N.Y.).” left out

plκB [11] = details: spinal cord tissue cultures, 1 mM, time-dependent
Description: as §3
as §2, with “HL-60 Cell lysates were used as positive controls (Upstate Biotechnology, Lake Placid, N.Y.).” left out

bcl-2 mRNA = details: spinal cord tissue cultures, ex vivo administration
Description: as §3

NF-κB p50 [12] = details: N2a cells, 1 mM for three hours
Description: (§4) Immunofluorescence Staining and Microscopy: Indirect labeling methods were used to determine plκB and NF-κB p50 in N2aCells. […] The cells were washed with warm PBS and fixed at room temperature for 15 min with 4% paraformaldehyde (PFA). After washing with PBS, fixed cells were incubated with blocking solution containing 0.3% Triton X-100, 5% bovine serum albumin, and 3% goat serum for 1 hr, followed by incubation with primary antibodies overnight at 4° C. After three washes with PBS, the cells were incubated for 1 hr with FITC-conjugated (1:200 dilution) and Cy3-conjugated secondary antibody (1:200 dilution; Vector Laboratories, Burlingame, Calif.). The slides were washed three times with PBS and mounted with fluorochrome mounting solution. Images were analyzed using a fluorescence microscope. Control experiments were performed in the absence of primary antibody.

plκB [13] = details: N2a cells, 1 mM for three hours
Description: as §4

Compound: COc1cc(/C=C/C(=O)CC(=O)/C=C/c2ccc(O)c(OC)c2)ccc1O [Curcumin]
- effect on PBA-induced bcl-2 promoter activity (bcl-2 promoter; N2a cells, with PBA): dose-dependently blocked

Compound: CCCC(=O)[O-].[Na+] [NAB, sodium butyrate]
- motor performance (rotarod) (G93A mice [1]): significantly improved
- body weight loss (Body weight): significantly reduced
- Survival (Days ± SD) (G93A transgenic ALS mice; 200 mg/kg/d i.p.): 129.2 ± 4.5 days
- Survival (Days ± SD) (G93A transgenic ALS mice; 600 mg/kg/d i.p.): 141.8 ± 5.9 days
- Percentile change (survival extension) (G93A transgenic ALS mice; 600 mg/kg/d i.p.): 12.5%
- Survival (Days ± SD) (G93A transgenic ALS mice; 1200 mg/kg/d i.p.): 151.3 ± 6.8 days
- Percentile change (survival extension) (G93A transgenic ALS mice; 1200 mg/kg/d i.p.): 20%
- time to death (mice became moribund and died) (mice; 2 g/kg/d i.p.): 1 to 9 days
- time to sudden death (mice; 4 g/kg/d i.p.): 0.5 to 1.0 h
- estimated number of ventral horn neurons, lumbar cord (G93A mice [2]; 1.2 g/kg/d i.p. from 21 days): 9,604.4±346.2
- reactive astrogliosis (GFAP immunostaining) (G93A mice [3]): reduced
- gross spinal cord atrophy (G93A mice [3]; 1.2 g/kg/d): ameliorated

Compound: [O-][n+]1cccc(/C(Cl)=N/OC[C@H](O)CN2CCCCC2)c1 [arimoclomal]
- survival extension (ALS mice): 22%

Compound: Nc1nc2ccc(OC(F)(F)F)cc2s1 [riluzole]
- extension of life (humans with ALS): 10-15%

Compound: sodium phenylbutyrate [PBA]
- improvement of cell viability [4]: 34.7%
- protection against X/XO-induced cell death (WT and WT-SOD1 N2a cells): protects
- motor performance (rotarod) (G93A mice [1]): significantly improved
- body weight loss (Body weight): significantly reduced
- stride length (G93A mice [5]): markedly improved
- expression of NF-κBp50 (NF-κB p50 [6]): Marked increased expression
- activated caspase 3 (Western blot) (activated caspase 3): significantly reduces
- activated caspase 9 (Western blot) (activated caspase 9): significantly reduces
- Bcl-2 expression in spinal cord sections (bcl-2 [7]): restored to WT levels
- release of cytochrome c into the cytosol of neurons (cytochrome c): dramatic reduction
- phosphorylation of lκB in the ventral horn (plκB [8]): increased
- histone 3 and histone 4 acetylation (Western blot) [9]: markedly increased
- time of induced NF-κBp50 acetylation (acetylated NF-κB p50; spinal cord tissue cultures from G93A mice): 3 to 6 h
- time of induced NF-κBp50 acetylation (acetylated NF-κB p50; spinal cord tissue cultures from WT mice): 6 to 24 h
- bcl-2 protein (bcl-2 [10]): increased
- plκB protein (plκB [11]): increased
- mRNA upregulation of bcl-2 (bcl-2 mRNA): induced at 3 hours and sustained until 12 hours
- increase of bcl-2 promotor activity (bcl-2 promoter; N2a cells transfected with bcl-2 reporter plasmids): 90%
- induction of bcl-2 promotor activity (bcl-2 promoter; N2a cells transfected with bcl-2 reporter plasmids, after 24 h of incubation): approximately 2 fold
- transactivation of wild type κB site bcl-2 promotor (bcl-2 promoter; N2a cells, transfection assay): transactivates
- nuclear translocation of NF-κB p50 immunofluorescence (NF-κB p50 [12]): increased
- cytosolic plκB immunofluorescence (plκB [13]): increased
- Survival (Days ± SD) (G93A transgenic ALS mice; 200 mg/kg/d i.p.): 136.5 ± 5.5 days
- Percentile change (survival extension) (G93A transgenic ALS mice; 200 mg/kg/d i.p.): 8.6%
- Survival (Days ± SD) (G93A transgenic ALS mice; 400 mg/kg/d i.p.): 153.2 ± 6.4 days
- Percentile change (survival extension) (G93A transgenic ALS mice; 400 mg/kg/d i.p.): 21.9%
- survival benefit (G93A transgenic ALS mice; transgenic SOD1 mice, this study, dose not stated): 22%
- morbidity and mortality (mice; 600 mg/kg/d i.p.): morbidity and mortality
- morbidity and mortality (mice; 800 mg/kg/d i.p.): morbidity and mortality
- estimated number of ventral horn neurons, lumbar cord (G93A mice [2]; 400 mg/kg/d i.p. from 21 days): 10,378.4±304.4
- reactive astrogliosis (GFAP immunostaining) (G93A mice [3]): reduced
- gross spinal cord atrophy (G93A mice [3]; 400 mg/kg/d): ameliorated
